Source: ChEMBL document CHEMBL1201862, “PubChem BioAssay data set” (2004)
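Compound exposure: 48 hours, 5 concentrations, 96-well plates. Abbreviation: GI50, concentration required for 50% inhibition of growth.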 Calls of active or inactive are those of the source. Cut-off read from the data, not from the text of the source: active = GI50 up to about 1.1 µM and inactive = higher.

Experiments:
Test in all cases: NCI tumour cell line growth inhibition, 48 h
M19-MEL = tested on: M19-MEL
KM-20L2 = tested on: KM-20L2
DMS-273 = tested on: DMS-273
DMS-114 = tested on: DMS-114
SNB-78 = tested on: SNB-78
XF498 = tested on: XF498
LXFL 529 = tested on: LXFL 529
RXF 631 = tested on: RXF 631
DLD-1 = tested on: DLD-1

Measured: GI50

CN1C(c2ccccc2)CC(=NOCc2ccccc2)CC1c1ccccc1 (configuration not stated)
inactive: M19-MEL > 100 µM | KM-20L2 > 80.2 µM | DMS-273 33.7 µM | DMS-114 17.7 µM | SNB-78 42.5 µM | XF498 > 100 µM | LXFL 529 16.8 µM | RXF 631 31.2 µM | DLD-1 46.7 µM

COc1ccc([Se]c2ccc(OC)cc2OC)c(OC)c1
inactive: M19-MEL 9.46 µM | KM-20L2 8.38 µM | DMS-273 3.85 µM | DMS-114 3.44 µM | SNB-78 22.6 µM | XF498 24.9 µM | LXFL 529 30.1 µM | RXF 631 22.1 µM | DLD-1 17.4 µM

O=C(O)CNc1cc(-c2ccccc2)nc(NCC(=O)O)n1
inactive: M19-MEL > 100 µM | KM-20L2 > 100 µM | DMS-273 > 100 µM | DMS-114 > 100 µM | SNB-78 > 100 µM | XF498 > 100 µM | LXFL 529 > 100 µM | RXF 631 > 100 µM | DLD-1 > 100 µM
